# Data published in patent publication US11007250B2, “Methods and kits for treating pain” (Duke University, priority 2017, dated 2021).
# Key:
# [1] = test system: tibia bone of mice with LLC bone cancer; experiment: X-ray bone destruction score in LLC bone cancer model; assay type: in vivo, mouse; settings: Nivolumab 10 mg/kg IV; scores 8, 11 and 15 days after tumor inoculation
# Procedure: FIG. 27. Intravenous injections of Nivolumab protect against bone destruction after tumor inoculation. […] (B) X-ray images showing tibia bones 11 days after tumor inoculation. Arrows show bone destruction in saline-treated animals. (C) Bone destruction scores 8, 11, and 15 days after tumor inoculation. The scores were assessed as follows: Score 0, normal bone with no signs of destruction; Scorel, small radiolucent lesions indicative of bone destruction (one to three lesions); Score 2, increased number of lesions (three to six lesions) and loss of medullary bone; Score 3, loss of medullary bone and erosion of cortical bone; Score 4, full-thickness unicortical bone loss; Score 5, full-thickness bicortical bone loss and displaced skeletal fracture. n=9-11 in each group, male, 8-10 weeks; Two-way ANOVA with Bonferroni's hoc-test; *P<0.05, compared with baseline; #P<0.05, compared with Saline group; Scores n were shown by the arrows in B.
# Since cancers often become painful after metastasis to bone tissue, we examined the role of PD-1 in a bone cancer pain model following inoculation of Lewis lung cancer (LLC) cells into tibia bone cavity. […]
# [2] = test system: small-diameter neurons of whole-mount DRG; experiment: Whole-cell patch clamp recordings in whole mount DRGs ex vivo; assay type: cell-based, mouse; settings: WT whole mount DRG; sPD-1 30 ng/ml, Nivolumab 300 ng/ml
# Procedure: Whole-cell patch clamp recordings in whole mount DRGs of mice ex vivo. L4-L5 DRGs were carefully removed 4 days after sham surgery or CCI surgery and placed in cold oxygenated ACSF. The connective tissue was gently removed under a microscope and the ganglia were digested with a mixture of 0.4 mg/mL trypsin (Sigma) and 1.0 mg/ml type-A collagenase (Sigma) for 30 min at 37° C. The intact ganglia were then incubated in ACSF oxygenated with 95% O2 and 5% CO2 at 28° C. for at least 1 h before transferring them to the recording chamber. DRG neurons were visualized with a 40× water-immersion objective using a BX51WI microscope (Olympus). Whole-cell current and voltage recordings were acquired with an Axon700B amplifier. Patch pipettes (4-7 MO) were pulled from borosilicate glass capillaries on P-97 puller. The recording chamber (300 μl) was continuously superfused (3-4 ml/min). Series resistance was compensated for (>80%), and leak subtraction was performed. The pipette solution contained (in mM): 140 KCl, 2 MgCl2, 10 Hepes, 2 Mg-ATP, pH 7.4. Osmolarity was adjusted to 290-300 mOsm. Data was acquired with a Digidata 1322A acquisition system (molecular devices) using pCLAMP 9.0 software. Signals were low-pass filtered at 5 kHz, sampled at 10 kHz and analyzed offline.
# [3] = test system: naive mice; experiment: Basal pain in naive mice (von Frey test, spontaneous pain); assay type: in vivo, mouse; settings: RMP1-14 5 μg, Nivolumab 10 μg
# [4] = test system: lamina 110 neurons in spinal cord slices; experiment: Patch clamp recordings of sEPSCs in spinal cord slices; assay type: cell-based, mouse; settings: Nivolumab 300 ng/ml
# [5] = test system: spinal wide dynamic range (WDR) neurons; experiment: Extracellular recording of spinal WDR neurons in bone cancer rats in vivo; parameters: species or system rat; settings: PD-L1 20 μg i.t., day 14; Nivolumab 10 μg i.t., day 8
# Procedure: Rat bone cancer pain model. Tumor cells were extracted from the ascetic fluid of rats that received Walker 256 rat mammary gland carcinoma cells, and suspension of 1×10^8/ml tumor cells in PBS was prepared. The inoculation was performed as previously described (Yang, Y, et al. J. Neurosci., 2015, 35:7950-7963). Briefly, rats were anesthetized with sodium pentobarbital (50 mg/kg, intraperitoneal). The right leg was shaved, and the skin was disinfected with iodine tincture and 75% ethanol. A 22-gauge needle was inserted at the site of the intercondylar eminence of the right tibia and was then replaced with a 10 μl microinjection syringe containing a 4 μl suspension of tumor cells (4×10^5). The contents of the syringe were slowly injected into the tibia cavity. To prevent leakage of cells outside the bone, the injection site was sealed with bone wax. […]
# Extracellular recording in rat spinal cord in vivo. […] The electrocardiogram was monitored, and the heart rate was maintained at 250-300/min. […] WDR neurons responding to innocuous stimulation and to a greater degree, noxious stimulation of the RF were analyzed in the present study. The recorded signals were amplified with a microelectrode amplifier (1800 A-M System, USA) and fed to computer via a CED 1401 interface for off-line analysis using the Spike 2 software (Cambridge Electronic Design, Cambridge, UK). […]
# [6] = PD-L1 30 ng/ml, sPD-1 30 ng/ml perfusion, 3 h
substance,measurement,setting,value
"Nivolumab: FDA-approved fully humanized IgG4 monoclonal anti-PD-1 antibody, Bristol-Myers Squibb",tibia bone destruction during cancer progression (X-ray),[1],protected
same,firing rate of action potentials,[2],increased the firing rate
same,effect on PD-L1's analgesic effects,"[3]; antibody i.pl. 30 min prior to PD-L1 (5 μg, i.pl.)",blocked
same,duration of mechanical allodynia in naive mice,"[3]; i.pl., sPD-1 5 μg",5 h
same,mechanical allodynia in naive mice,"[3]; i.pl., sPD-1 5 μg",marked mechanical allodynia
same,effect on PD-L1's inhibition of sEPSC frequency,[4]; 3 h incubation,blocked
same,amplitude of spontaneous EPSCs (sEPSCs),[4]; [6],not amplitude
same,frequency of spontaneous EPSCs (sEPSCs),[4]; [6],increased sEPSC frequency
same,activity of WDR neurons in bone cancer rats,[5],enhanced activities of WDR neurons
